The assay relates to mice. The assay is described as follows: Neuropharmacological Assay (SmartCube): automated behavioral signature of compound-treated mice compared with a database of reference drug classes. It counts as in vivo. To be noted: for MED (minimal effective dose) / minimal effective dose / MED: i.p., that dose is shown; for AG / AN / AX / CE / HL / MS / PS / SH / AD / AP / UK: 3.0 mg/kg i.p., 15 min before test; for minimal effective dose: Mus musculus, ip. An excerpt: Neurosci. 2011 Sep. 9; 5: 103 (doi: 10.3389/fnins.2011.00103) (“Roberds”). As reported in Roberds, because psychiatric diseases generally result from disorders of cell-cell communication or circuitry, intact systems are useful in detecting improvement in disease-relevant endpoints. These endpoints are typically behavioral in nature, often requiring human observation and interpretation. To facilitate testing of multiple compounds for behavioral effects relevant to psychiatric disease, PsychoGenics, Inc. (Tarrytown, NY, “PGI”) developed SmartCube™ an automated system in which behaviors of compound-treated mice are captured by digital video and analyzed with computer algorithms. (D. Brunner et al. Drug Discov. Today 2002, 7:S107-S112). PGI Analytical Systems uses data from SmartCube™ to compare the behavioral signature of a test compound to a database of behavioral signatures obtained using a large set of diverse reference compounds. (The composition of the database as well as validation of the method is further described in Roberds). In this way, the neuropharmacological effects of a test compound can be predicted by similarity to major classes of compounds, such as antipsychotics, anxiolytics and antidepressants.
The SmartCube™ system produces an activity signature indicating the probability that the activity of the test compound at the administered dose matches a given class of neuropharmacological agents. (See, e.g., Roberds, FIGS. 2 and 3). The test compound is simultaneously compared against multiple classes of agents; thus, a separate probability is generated for each behavioral effect measured (e.g., anxiolytic activity, analgesic activity, etc.). In table 2 below, these probabilities are reported for each behavioral effect measured as described in Table 1 below.
Provided compounds were dissolved in a mixture of Pharmasolve™ (N-methyl-2-pyrrolidone), polyethylene glycol and propylene glycol, and were injected i.p. 15 min. before the behavioral test. For each compound, injections were administered at 3 different doses. For each behavioral effect measured, results for the 3.0 mg/kg dose are presented. The potency of many of the compounds in the table was also determined in the SmartCube™ system. Test compounds were routinely examined at dose levels of 0.3, 1, 3 and 10 mg per kg (mpk), although the dose range was increased or decreased, if necessary, to obtain a full dose response curve. A compound's minimal effective dose (MED) is a measure of the compound's potency. The MED was defined as the dose (in mpk) having 45% or more total activity in SmartCube. If only one dose was tested, that dose is shown in the MED column of Table 2 even though the dose is not known to be the MED.

The mark [1] stands for this setting: dose having 45% or more total activity in SmartCube, if only one dose was tested, hydrochloride.
The mark [2] stands for this setting: probability that activity matches this class of agents.
[3] abbreviates: probability that activity matches this class of agents, hydrochloride, 3 mg/kg.
[4] abbreviates: dose having 45% or more total activity in SmartCube, if only one dose was tested, read-out: MED (minimal effective dose).
Where [5] appears, read: probability that activity matches this class of agents, 3 mg/kg.
Setting [6] is: minimal effective dose: dose having 45% or more total activity in SmartCube, if only one dose tested, read-out: MED.
Setting [7] is: SmartCube class probability, hydrochloride, 3 mg/kg.
Setting [8] is: minimal effective dose: dose having 45% or more total activity in SmartCube, if only one dose tested.

SMILES strings stand for the structures. Where a name gives a salt, the structure may show the parent alone. Read-outs that look alike come from different tables or passages of the source.

With `CNC1CCc2cc(C)sc2C1` (single isomer, unassigned) [Compound 29, N, 2-dimethyl-4,5,6,7-tetrahydrobenzothiophen-6-amine hydrochloride], the “MED (minimal effective dose)” value under setting [1] was 1.0 mpk. Moreover, under setting [2], the AG entry was “ND (^ <4%)”, the AN result is “ND (^ <4%)”, the AX entry is listed as “++ (≥24%)” and the CE entry is listed as “ND (^ <4%)”. Besides, under setting [2], the HL result was “ND (^ <4%)”, the MS result is given as “ND (^ <4%)”, the PS result was “ND (^ <4%)” and the SH result is “ND (^ <4%)”. Also, under setting [3], the AD entry is given as “ND (^ <4%)”, the AP result is on record as “+++ (≥49%)” and the UK result is given as “+ (≥4%)”.

Take `CNC1CCc2sc(F)cc2C1` (single isomer, unassigned; enantiomer 1) [Compound 98, 2-fluoro-N-methyl-4,5,6,7-tetrahydrobenzothiophen-5-amine hydrochloride enantiomer 1]: the minimal effective dose under setting [4] is 3 mg/kg. Besides, under setting [2], the AD result is “ND (^ <4%)”, the AG entry is given as “ND (^ <4%)”, the AN entry is “ND (^ <4%)” and the CE result is listed as “ND (^ <4%)”. Under setting [2], the HL result is listed as “ND (^ <4%)”, the MS result was “ND (^ <4%)”, the PS result is on record as “ND (^ <4%)” and the SH entry is given as “ND (^ <4%)”. Under setting [5], the AP entry is given as “++ (≥24%)”, the AX result is reported as “+ (≥4%)” and the UK result is “++ (≥24%)”.

With `NC1CCc2c(F)csc2C1` (stereo not drawn) [Compound 209, 3-fluoro-4,5,6,7-tetrahydrobenzothiophen-6-amine hydrochloride], the minimal effective dose under setting [6] was below 3 mg/kg. Moreover, for the setting “SmartCube class probability”, the AD result is on record as “++ (≥24%)”, the AG entry was “ND (^ <4%)”, the AN result is “ND (^ <4%)” and the AP result is recorded as “+ (≥4%)”. Under “SmartCube class probability”, the AX result is recorded as “+++ (≥49%)”, the CE result is on record as “+ (≥4%)”, the HL entry is given as “ND (^ <4%)” and the MS entry is recorded as “ND (^ <4%)”. Besides, for the setting “SmartCube class probability”, the PS entry was “ND (^ <4%)”, the SH entry was “ND (^ <4%)” and the UK entry is “ND (^ <4%)”.

For the molecule `NC1CCc2scc(F)c2C1` (single isomer, unassigned) [Compound 191, 3-fluoro-4,5,6,7-tetrahydrobenzothiophen-5-amine hydrochloride], under “SmartCube class probability”, the AX entry is on record as “ND (^ <4%)”, the HL result is on record as “ND (^ <4%)”, the MS entry is given as “ND (^ <4%)” and the SH entry is “ND (^ <4%)”. In addition, under setting [7], the AD entry is “++ (≥24%)”, the AG result is “+ (≥4%)”, the AN entry is “+ (≥4%)” and the AP entry is “+ (≥4%)”. Also, under setting [7], the CE result was “+ (≥4%)”, the PS entry is given as “+ (≥4%)” and the UK entry is “ND (^ <4%)”. Under “minimal effective dose: dose having 45% or more total activity in SmartCube, if only one dose tested, hydrochloride”, this molecule returned an MED of 1 mpk.

`CCc1csc2c1CC(NC)CC2` (stereo not drawn) [Compound 207, 3-ethyl-N-methyl-4,5,6,7-tetrahydrobenzothiophen-5-amine hydrochloride]: under setting [6], the minimal effective dose was above 3 mg/kg. Also, for the setting “SmartCube class probability”, the AD entry is “ND (^ <4%)”, the AG entry was “ND (^ <4%)”, the AN entry is listed as “ND (^ <4%)” and the AP result was “ND (^ <4%)”. Also, for the setting “SmartCube class probability”, the AX entry is “ND (^ <4%)”, the CE entry is on record as “ND (^ <4%)”, the HL result is “ND (^ <4%)” and the MS result is “ND (^ <4%)”. Also, where the note is “SmartCube class probability”, the PS result is “ND (^ <4%)”, the SH entry is reported as “ND (^ <4%)” and the UK result is given as “+ (≥4%)”.

In the case of `CNC1CCc2c(csc2C)C1` (single isomer, unassigned) [Compound 33, N, 1-dimethyl-4,5,6,7-tetrahydro-2-benzothiophen-5-amine hydrochloride], the “MED (minimal effective dose)” value under setting [1] is recorded as 0.3 mpk. Under setting [2], the AD result is on record as “+++ (≥49%)”, the AG entry is listed as “ND (^ <4%)”, the AN result is recorded as “ND (^ <4%)” and the CE result was “ND (^ <4%)”. Further, under setting [2], the HL entry is “ND (^ <4%)”, the MS entry is “ND (^ <4%)”, the PS entry is recorded as “ND (^ <4%)” and the SH entry is recorded as “ND (^ <4%)”. In addition, under setting [2], the UK entry is “ND (^ <4%)”. For the same molecule, under setting [3], the AP result is “++ (≥24%)” and the AX result is given as “ND (^ <4%)”.

`CNC1CCc2c(C)sc(C(F)(F)F)c2C1` (single isomer, unassigned; enantiomer 1) [Compound 104, N, 1-dimethyl-3-(trifluoromethyl)-4,5,6,7-tetrahydro-2-benzothiophen-5-amine hydrochloride enantiomer 1]: the minimal effective dose under setting [4] was determined as 3 mg/kg. Further, under setting [2], the AD entry is “ND (^ <4%)”, the AG result is recorded as “ND (^ <4%)”, the AN entry is recorded as “ND (^ <4%)” and the AX result was “ND (^ <4%)”. Moreover, under setting [2], the CE result is reported as “ND (^ <4%)”, the HL result is “ND (^ <4%)”, the MS result was “ND (^ <4%)” and the PS entry was “ND (^ <4%)”. Under setting [2], the SH entry is given as “ND (^ <4%)”. Also, under setting [5], the AP entry is on record as “++ (≥24%)” and the UK result is on record as “++ (≥24%)”.

Regarding `CNC1CCc2c(C(F)(F)F)csc2C1` (single isomer, unassigned) [Compound 231, N-methyl-3-(trifluoromethyl)-4,5,6,7-tetrahydrobenzothiophen-6-amine hydrochloride], where the note is “SmartCube class probability”, the AG result is “ND (^ <4%)”, the AN entry is recorded as “ND (^ <4%)”, the AP result is on record as “ND (^ <4%)” and the AX result is listed as “ND (^ <4%)”. Under “SmartCube class probability”, the CE result is listed as “ND (^ <4%)”, the HL result is “ND (^ <4%)”, the MS result is “ND (^ <4%)” and the PS result is reported as “ND (^ <4%)”. Also, the SH entry (SmartCube class probability) was “ND (^ <4%)”. Under setting [7], the AD entry is listed as “ND (^ <4%)” and the UK entry is “+++ (≥49%)”. This molecule also showed an MED under setting [8] of 3 mpk.

As for `CNC1COc2csc(C(F)(F)F)c2C1` (single isomer, unassigned) [Compound 259, N-methyl-5-(trifluoromethyl)-3,4-dihydro-2H-thieno[3,4-b]pyran-3-amine hydrochloride], where the note is “SmartCube class probability”, the AD entry is reported as “ND (^ <4%)”, the AG entry was “ND (^ <4%)”, the AN entry is reported as “ND (^ <4%)” and the AP result is listed as “ND (^ <4%)”. Besides, where the note is “SmartCube class probability”, the AX result is recorded as “ND (^ <4%)”, the CE result is “ND (^ <4%)”, the HL entry was “ND (^ <4%)” and the MS result is on record as “ND (^ <4%)”. Also, for the setting “SmartCube class probability”, the PS entry is on record as “ND (^ <4%)” and the SH result is reported as “ND (^ <4%)”. Also, the UK result under setting [7] is “++ (≥24%)”. Under setting [8], this molecule gave an MED above 3 mpk.

In the case of `CNC1COc2c(C3CC3)csc2C1` (stereo not drawn) [Compound 235, 3-cyclopropyl-N-methyl-6,7-dihydro-5H-thieno[3,2-b]pyran-6-amine hydrochloride], the minimal effective dose under setting [6] was 3 mg/kg. Besides, for the setting “SmartCube class probability”, the AD result is “++++ (≥74%)”, the AG entry is “ND (^ <4%)”, the AN entry is “ND (^ <4%)” and the AP result is reported as “ND (^ <4%)”. For the same molecule, for the setting “SmartCube class probability”, the AX result is “ND (^ <4%)”, the CE result was “ND (^ <4%)”, the HL entry is reported as “ND (^ <4%)” and the MS entry was “ND (^ <4%)”. Moreover, under “SmartCube class probability”, the PS result is given as “ND (^ <4%)”, the SH entry was “ND (^ <4%)” and the UK result is “ND (^ <4%)”.
